Source: article PMC3458012, “Gliadin Peptides Induce Tissue Transglutaminase Activation and ER-Stress through Ca^2+ Mobilization in Caco-2 Cells” (PLoS ONE, 2012)
Ends that are not written are not given here.

Columns and labels:
intracellular tTG [1] = assay: In situ tTG transamidating activity, pentylamine-biotin incorporation, microscopy; type: cell-based; conditions: Caco-2 cells; for In situ tTG crosslinking activity (fluorescence of pentylamine-biotin incorporation): 30 min, complete medium, peptides 20 µg/ml, ionomycin 10 µM, THP 1 µM, 0.5 mM pentylamine-biotin
Protocol: (§1) In situ tTG activity was visualized by using the tTG substrate pentylamine-biotin (Euroclone, Milan, Italy) as reported elsewhere. Caco-2 cells were treated for 30 min with 10 µM ionomycin (Sigma-Aldrich, Milan, Italy), or with different amounts of gliadin peptides, or with 1 µM THP, in the presence of 0.5 mM pentylamine-biotin, before being processed for microscopy observation. To visualize biotin-labeled p31–43 and p57–68 in the cells, peptides needed to be used at a concentration of 0.2 mM. […] Pentylamine-biotin was also used to quantify the tTG transamidating activity by a microplate assay. Briefly, after 30 min of treatment with 20 µg/ml gliadin peptides, or with 1 µM THP, cells were lysed and proteins (25 µg) were coated into the wells of a 96-well plate. The wells were blocked with 10% bovine serum albumin then incubated with 1∶5000 peroxidase-conjugated streptavidin (Euroclone) in 5% bovine serum albumin. To reveal peroxidase activity, 3,3′,5,5′-tetramethylbenzidine (Sigma-Aldrich, Milan, Italy) was added to each well and, after stopping the reaction with H2SO4, absorbances were read at 450 nm.

Caco-2 cells = type: cell-based
Protocol: Intracellular Ca^2+ concentration ([Ca^2+]i) was measured in Caco-2 cells by single cell computer-assisted videoimaging using the Ca^2+ indicator Fura-2 acetoxymethyl ester, as previously described, [22]. Gliadin peptides were loaded at concentrations between 0.2 and 20 µg/ml for 30 min at 37°C in normal Krebs solution containing the following (in mM): 5.5 KCl, 160 NaCl, 1.2 MgCl2, 1.5 CaCl2, 10 glucose, and 10 Hepes-NaOH, pH 7.4. To selectively deplete intracellular Ca^2+ stores, experiments were performed in the presence of thapsigargin (THP) (1 µM), an irreversible and selective inhibitor of the sarco(endo)plasmic reticulum Ca^2+ ATPase, and in the presence of the mitochondrial uncoupler carbonylcyanide-p-trifluoromethoxyphenylhydrazone (FCCP) (300 nm).

intracellular tTG [2] = assay: Microplate assay of tTG transamidating activity on cell lysates; type: cell-based; conditions: Caco-2 cells
Protocol: as §1

GRP78 [3] = assay: GRP78 mRNA by real-time RT-PCR; type: cell-based, human; conditions: Caco-2 cells, 24 h, peptides 20 µg/ml, THP 1 µM, normalized to GAPDH
GRP78 [4] = assay: GRP78 protein level by western blot; type: cell-based; conditions: Caco-2 cells, 24 h, THP 1 µM, normalized to tubulin
Protocol: (§2) Cells were washed with phosphate-buffered saline solution and mechanically harvested in lysis buffer, consisting of 20 mM Tris-HCl, pH 7.5, 150 mM NaCl, 1 mM EDTA, 1 mM dithiotreitol, 0.1% sodium dodecyl sulphate, 1% triton X-100, 1 mM ortovanadate, and inhibitors cocktail (Sigma-Aldrich). After 30 min of incubation on ice, cell extracts were centrifuged at 12,000 g for 30 min at 4°C, to remove cell debris, then 75 µg of total proteins were separated by 10% sodium dodecyl sulphate-polyacrylamide gel electrophoresis and transferred to a membrane. To detect tTG, the blot was treated as described elsewhere. To detect GRP78 and CHOP, the blots were treated with 5% skim milk in phosphate-buffered saline overnight at 4°C, then incubated for 2 h with an anti-GRP78 rabbit polyclonal antibody (H-129) (1∶500; Santa Cruz, CA, USA), or with an anti-CHOP mouse monoclonal antibody (1∶1,500; Santa Cruz), respectively, in phosphate-buffered saline containing 0.1% tween-20. After washing, the blots were incubated for 1 h at room temperature with an anti-rabbit-peroxidase secondary antibody (1∶10,000; Bio-Rad Laboratories), or with an anti-mouse-peroxidase secondary antibody (1∶10,000; Bio-Rad Laboratories), respectively.

CHOP [5] = assay: CHOP mRNA by real-time RT-PCR; type: cell-based, human; conditions: Caco-2 cells, 24 h, peptides 20 µg/ml, THP 1 µM, normalized to GAPDH
CHOP [6] = assay: CHOP protein level by western blot; type: cell-based; conditions: Caco-2 cells, 24 h, peptides 20 µg/ml, THP 1 µM, normalized to tubulin
Protocol: as §2

## LPQFEEIRNLALQTLPAM [p229–246]
Intracellular tTG [1]
  In situ tTG crosslinking activity (fluorescence of pentylamine-biotin incorporation): fluorescence intensity did not increase

## LGQQQPFPPQQPY [p31–43]
Caco-2 cells
  EC50 of [Ca2+]i increase: 0.2 µg/mL

## C/C=C(/C)C(=O)O[C@H]1C(C)=C2[C@H]([C@@H]1OC(=O)CCCCCCC)[C@@](C)(OC(C)=O)C[C@H](OC(=O)CCC)[C@@]1(O)[C@H]2OC(=O)[C@@]1(C)O [THP, thapsigargin]
Intracellular tTG [1]
  In situ tTG crosslinking activity (fluorescence of pentylamine-biotin incorporation): sufficient to activate intracellular tTG
Intracellular tTG [1]; phosphate-buffered saline without Ca2+ and Mg2+
  In situ tTG activation in Ca2+-free medium: sufficient to activate intracellular tTG
Intracellular tTG [2]; 30 min, peptides 20 µg/ml or THP 1 µM, 25 µg lysate, absorbance 450 nm, at least 3 experiments in triplicate
  Increase of tTG activity versus cells exposed to pentylamine-biotin alone: similar
GRP78 [3]
  Increase of GRP78 mRNA expression with respect to untreated cells: about 30 fold
GRP78 [4]
  Increase of GRP78 protein expression: about five-fold
CHOP [5]
  Increase of CHOP mRNA expression: about 14 fold
CHOP [6]
  Increase of CHOP protein expression: three-fold

## NCCSSCCN [cystamin]
Intracellular tTG [1]; cystamin 200 µM added 5 min before treatment
  Inhibition of in situ tTG activation induced by ionomycin and p31–43: inhibited the tTG activation
Intracellular tTG [2]; microplate assay, three experiments in triplicate
  Effect of cystamin pretreatment on tTG activity induced by ionomycin or p31–43: significant reduction of tTG activity

## QQPQDAVQPF [pCTR, irrelevant control peptide … from durum wheat]
Caco-2 cells; Caco-2 cells, 20 µg/ml, normal Krebs solution
  [Ca2+]i increase with respect to the basal value: did not affect
Intracellular tTG [1]
  In situ tTG crosslinking activity (fluorescence of pentylamine-biotin incorporation): fluorescence intensity did not increase

## QLQPFPQPQLPY [p57–68]
Caco-2 cells
  EC50 of [Ca2+]i increase: 0.9 µg/mL

## PLIRPLLARPAK [pHTP, irrelevant control peptide, 537–548 region of the human thyroid peroxidase]
Intracellular tTG [1]
  In situ tTG crosslinking activity (fluorescence of pentylamine-biotin incorporation): fluorescence intensity did not increase
